Results from ChEMBL document CHEMBL5131534, “Identification of 2-Pyridinylindole-Based Dual Antagonists of Toll-like Receptors 7 and 8 (TLR7/8)” (ACS Med Chem Lett, 2022).

Assays:
[1] = Toxicity in MRL/Ipr Systemic lupus erythematosus mouse model assessed as relative spleen weight at 20 mg/kg, po administered for 8 weeks and measured 24 hrs post final dose relative to control; type: organism-based; details: in vivo, 1368 h
[2] = In vivo antagonist activity at TRL9 in C57BL/6 mouse assessed as inhibition of ODN1585 stimulated IL-6 production at 30 mg/kg,po for 30 minutes and followed by ODN1585 addition measured after 90 mins by ELISA analysis relative to control; type: functional; parameters: scale not given: the % may be the effect or the level left; details: time 120 min, 2 h
[3] = Drug concentration in mouse blood at 15 mg/kg, po measured at 24 hrs; type: ADME, organism-based; details: read-out: Ct
[4] = Oral bioavailability in mouse blood at 15 mg/kg; type: ADME, organism-based
[5] = Clearance in mouse blood at 5 mg/kg, iv; type: ADME, organism-based
Mus musculus [6] = experiment: Anti-inflammatory activity against MRL/Ipr Systemic lupus erythematosus mouse model assessed as inhibition of proteinuria at 0.1 mg/kg, po administered for 8 weeks and measured 24 hrs post final dose relative to control; type: functional; parameters: scale not given: the % may be the effect or the level left; details: time 1368 hrs
Mus musculus [7] = experiment: Anti-inflammatory activity against MRL/Ipr Systemic lupus erythematosus mouse model assessed as inhibition of anti-dsDNA Ab titer at 1 mg/kg, po administered for 8 weeks and measured 24 hrs post final dose relative to control; type: functional; parameters: scale not given: the % may be the effect or the level left; details: time 1368 hrs
[8] = AUClast in mouse blood at 5 mg/kg, iv; type: ADME, organism-based; parameters: time 0 - last, dose 5 mg/kg, route iv
Mus musculus [9] = experiment: Anti-inflammatory activity against MRL/Ipr Systemic lupus erythematosus mouse model assessed as inhibition of anti-Sm/RNP Ab titer at 20 mg/kg, po administered for 8 weeks and measured 24 hrs post final dose relative to control; type: functional; parameters: scale not given: the % may be the effect or the level left; details: time 1368 hrs
Mus musculus [10] = experiment: Anti-inflammatory activity against MRL/Ipr Systemic lupus erythematosus mouse model assessed as inhibition of anti-dsDNA Ab titer at 5 mg/kg, po administered for 8 weeks and measured 24 hrs post final dose relative to control; type: functional; parameters: scale not given: the % may be the effect or the level left; details: time 1368 hrs
[11] = Volume of distribution at steady state in mouse blood at 5 mg/kg, iv; type: ADME, organism-based; details: read-out: Vdss
[12] = In vivo antagonist activity at TRL9 in C57BL/6 mouse assessed as inhibition of ODN1585 stimulated IL-6 production at 1 mg/kg,po for 30 minutes and followed by ODN1585 addition measured after 90 mins by ELISA analysis relative to control; type: functional; parameters: scale not given: the % may be the effect or the level left; details: time 120 min, 2 h
Mus musculus [13] = experiment: Anti-inflammatory activity against MRL/Ipr Systemic lupus erythematosus mouse model assessed as inhibition of urinary NGAL at 0.1 mg/kg, po administered for 8 weeks and measured 24 hrs post final dose relative to control; type: functional; parameters: scale not given: the % may be the effect or the level left; details: time 1368 hrs
[14] = In vivo antagonist activity at TRL9 in C57BL/6 mouse assessed as inhibition of ODN1585 stimulated IL-6 production at 3 mg/kg,po for 30 minutes and followed by ODN1585 addition measured after 90 mins by ELISA analysis relative to control; type: functional; parameters: scale not given: the % may be the effect or the level left; details: time 120 min, 2 h
[15] = Cmax in mouse blood at 15 mg/kg, po; type: ADME, organism-based; parameters: dose 15 mg/kg, route po
[16] = In vivo antagonist activity at TRL7 in C57BL/6 mouse assessed as inhibition of gardiquimod stimulated IL-6 production at 0.03 mg/kg,po for 30 minutes and followed by gardiquimod addition measured after 90 mins by ELISA analysis relative to control; type: functional; parameters: scale not given: the % may be the effect or the level left; details: time 120 min, 2 h
[17] = Toxicity in MRL/Ipr Systemic lupus erythematosus mouse model assessed as relative spleen weight at 0.1 mg/kg, po administered for 8 weeks and measured 24 hrs post final relative to control; type: organism-based; details: in vivo, 1368 h
Mus musculus [18] = experiment: Anti-inflammatory activity against MRL/Ipr Systemic lupus erythematosus mouse model assessed as inhibition of urinary NGAL at 5 mg/kg, po administered for 8 weeks and measured 24 hrs post final dose relative to control; type: functional; parameters: scale not given: the % may be the effect or the level left; details: time 1368 hrs
Toll-like receptor 9 = target: T1, Toll-like receptor 9 (Mus musculus, UniProt Q9EQU3); experiment: Antagonist activity at ODN-2216 stimulated TLR9 in mouse whole blood assessed as inhibition of IL-6 production by ELISA analysis; type: tissue-based
T1 sequence (Q9EQU3 whole entry): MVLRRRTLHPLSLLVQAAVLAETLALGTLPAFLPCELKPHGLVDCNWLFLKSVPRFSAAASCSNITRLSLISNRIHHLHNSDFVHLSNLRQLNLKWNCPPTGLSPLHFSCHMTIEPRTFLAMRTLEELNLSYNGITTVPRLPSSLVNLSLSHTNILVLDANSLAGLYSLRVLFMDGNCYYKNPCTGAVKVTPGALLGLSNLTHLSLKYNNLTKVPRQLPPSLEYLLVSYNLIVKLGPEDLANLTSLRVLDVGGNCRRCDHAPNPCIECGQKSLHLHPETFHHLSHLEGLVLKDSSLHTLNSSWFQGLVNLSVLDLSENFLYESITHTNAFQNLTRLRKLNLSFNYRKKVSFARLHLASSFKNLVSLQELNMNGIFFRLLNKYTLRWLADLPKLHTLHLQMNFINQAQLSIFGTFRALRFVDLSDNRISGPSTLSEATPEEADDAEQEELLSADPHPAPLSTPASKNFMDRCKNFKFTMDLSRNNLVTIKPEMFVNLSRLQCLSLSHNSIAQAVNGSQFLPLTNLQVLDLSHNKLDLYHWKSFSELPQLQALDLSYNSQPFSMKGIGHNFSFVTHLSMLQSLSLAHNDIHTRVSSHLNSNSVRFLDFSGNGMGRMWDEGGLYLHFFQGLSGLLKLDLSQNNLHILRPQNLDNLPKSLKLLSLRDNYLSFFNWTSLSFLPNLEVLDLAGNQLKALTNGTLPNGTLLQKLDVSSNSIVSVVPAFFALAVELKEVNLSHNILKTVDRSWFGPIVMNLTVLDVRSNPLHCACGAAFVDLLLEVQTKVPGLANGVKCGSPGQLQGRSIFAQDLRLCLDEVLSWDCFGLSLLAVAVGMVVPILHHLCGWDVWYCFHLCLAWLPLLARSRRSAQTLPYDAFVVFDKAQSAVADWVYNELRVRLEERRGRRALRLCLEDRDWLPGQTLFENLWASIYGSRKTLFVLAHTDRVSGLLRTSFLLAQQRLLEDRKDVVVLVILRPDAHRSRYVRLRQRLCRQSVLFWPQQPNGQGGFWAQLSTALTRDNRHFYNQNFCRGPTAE

[19] = In vivo antagonist activity at TRL9 in C57BL/6 mouse assessed as inhibition of ODN1585 stimulated IL-6 production at 10 mg/kg,po for 30 minutes and followed by ODN1585 addition measured after 90 mins by ELISA analysis relative to control; type: functional; parameters: scale not given: the % may be the effect or the level left; details: time 120 min, 2 h
[20] = In vivo antagonist activity at TRL7 in C57BL/6 mouse assessed as inhibition of gardiquimod stimulated IL-6 production at […],po for 30 minutes and followed by gardiquimod addition measured after 90 mins by ELISA analysis relative to control; type: functional; parameters: scale not given: the % may be the effect or the level left; details: time 120 min, 2 h
Mus musculus [21] = experiment: Anti-inflammatory activity against MRL/Ipr Systemic lupus erythematosus mouse model assessed as inhibition of proteinuria at 20 mg/kg, po administered for 8 weeks and measured 24 hrs post final dose relative to control; type: functional; parameters: scale not given: the % may be the effect or the level left; details: time 1368 hrs
Mus musculus [22] = experiment: Anti-inflammatory activity against MRL/Ipr Systemic lupus erythematosus mouse model assessed as inhibition of anti-Sm/RNP Ab titer at 0.1 mg/kg, po administered for 8 weeks and measured 24 hrs post final dose relative to control; type: functional; parameters: scale not given: the % may be the effect or the level left; details: time 1368 hrs
[23] = Plasma protein binding in human assessed as free fraction; type: ADME, cell-free

- concentration at 24 h [3]: 22 nM
- bioavailability [4]: 58%
- clearance [5]: 146 mL/min/kg
- AUC(0-t) [8]: 1.58 µM·h
- Vd [11]: 113 L/kg
- Cmax [15]: 255 nM
- IC50 (Toll-like receptor 9): > 5 µM
- fraction unbound [23]: 0.09
Structure (SMILES): Cc1cc(-c2[nH]c3ccc(C4CCNCC4)cc3c2C(C)C)cc(C)n1
- Activity [1]: 51%
- Activity [2]: 38%
- Activity (Mus musculus [6]): 69%
- Activity (Mus musculus [7]): 14%
- Activity (Mus musculus [9]): 82%
- Activity (Mus musculus [10]): 20%
- Activity [12]: 16%
- Activity (Mus musculus [13]): 52%
- Activity [14]: 29%
- Activity [16]: 28%
- Activity [17]: 28%
- Activity (Mus musculus [18]): 72%
- Activity [19]: 33%
- Activity [20]: 83%
- Activity (Mus musculus [21]): 93%
- Activity (Mus musculus [22]): 27%
